The values that follow are results of earlier work, collected in patent US6878388B1, “Vanadium compounds for treating proliferative cell disorders” (Parker Hughes Institute, priority 2000, dated 2005).

Data set [1] has as its system pharyngonasal cancer. Particulars: single assay, Sakurai et al. 1995; cited from earlier work.
Data set [2] deals with tumor cell growth. The conditions noted are these: Kopf-Maier et al. 1983; cited from earlier work.

Consider `O.O.O=S(=O)([O-])[O-].[O]=[V+2].c1cnc2c(c1)ccc1cccnc12` [[VO(Phen)(H2O)2](SO4), (diaqua)(1,10-phenanthroline)oxovanadium (IV) sulfate], for which the “activity against pharyngonasal cancer” value in data set [1] is recorded as “active”.

On to Vanadocene dichloride [VDC], for which the “effect on tumor cell growth” value in data set [2] is “arrest tumor cell growth”.
